Here are results for five compounds from PubChem BioAssay (NCI).

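Interpolation was linear, between the two tested concentrations surrounding the appropriate level; five concentrations were tested over 48 hours in 96-well plates. The concentration for 50% growth inhibition is given as GI50. Definition used: TGI = concentration required for complete inhibition of growth.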

What all share (test): NCI-60 cell line screen, 48 h
The subject of assay [1] is M14 melanoma.
In assay [2] the test system is 786-0 renal.
Assay [3] has as its system A498 renal.
Assay [4] relates to T-47D breast.
The subject of assay [5] is OVCAR-3 ovarian.
In assay [6] the test system is UO-31 renal.
For assay [7], the system named is MDA-MB-231 breast.
Assay [8] deals with A549 NSCLC.
The test system of assay [9] is SN12C renal.
The test system of assay [10] is HCT-116 colon.

For the compound `N=C(N)CCCCCCCCC(=N)N`, the GI50 is 56.7 µM in assay [1]; greater than 100 µM in assay [2]; 11.6 µM in [3]; 25 µM in assay [4]; 34.1 µM in assay [5]; 18.2 µM in assay [6]. Besides, the GI50 in assay [7] was 63.3 µM; in assay [8], 6.6 µM; in assay [9], 25.7 µM; in assay [10] it was 22.8 µM. Further, the TGI in assay [1] was greater than 100 µM; in assay [2] it was greater than 100 µM; in assay [3], 68.5 µM; in assay [4], greater than 100 µM; in assay [5] it was greater than 100 µM; in [6], greater than 100 µM. In addition, the TGI in assay [7], in assay [8], in assay [9] and in [10] was greater than 100 µM throughout.
As to `Cc1cc2c(F)c(Oc3ncnn4cc(OC[C@@H](C)OC(=O)[C@H](C)N)c(C)c34)ccc2[nH]1`, the GI50 is 12.3 µM in assay [1]; 12 µM in assay [2]; 4.55 µM in assay [3]; 13.4 µM in assay [4]; 10.7 µM in assay [5]; 7.58 µM in assay [6]. Besides, the GI50 in [7] was 14.1 µM; in assay [8], 8.86 µM; in assay [9], 12.6 µM; in assay [10], 3.38 µM. Besides, the TGI in assay [1] turned out to be 25.7 µM; in [2] it was 26.9 µM; in assay [3] it was 17.3 µM; in [4] it was 31.7 µM; in assay [5], 23.7 µM; in assay [6], 21.4 µM. For the same compound, the TGI in assay [7] was 29.7 µM; in [8] it was 23.3 µM; in [9], 26.2 µM; in assay [10] it was 18.9 µM.
For `Nc1ccccc1C#C/C=C\C#Cc1ccc(Cl)cc1Cl`, the GI50 in [1] is 14.7 µM; in assay [2], 13.5 µM; in assay [3] it was 12.6 µM; in assay [4], 18.9 µM; in assay [5] it was 5.19 µM; in [6], 14.2 µM. The GI50 in assay [7] was 15.8 µM; in assay [8] it was 16 µM; in assay [9], 14.4 µM; in [10] it was 12 µM. The TGI in [1] was determined as 34.4 µM; in assay [2], 27.4 µM; in assay [3], 27 µM; in assay [4], 78.5 µM; in assay [5], 17.9 µM; in assay [6], 40 µM. In addition, the TGI worked out at 35.6 µM in assay [7], 44.2 µM in assay [8], 30.5 µM in assay [9] and 24.9 µM in [10].
Consider `C[C@]12CC[C@@H]3c4ccc(O)cc4CC[C@H]3[C@@H]1CC[C@@H]2NS(=O)(=O)Cc1ccc(Cl)cc1`, for which the GI50 in assay [1] was 2.49 µM; in assay [2], 2.66 µM; in assay [3], 1.29 µM; in [4], 2.85 µM; in assay [5], 1.91 µM; in assay [6] it was 1.39 µM. In addition, the GI50 in [7] is 1.75 µM; in [8] it was 2.98 µM; in assay [9] it was 1.7 µM; in [10], 1.92 µM. Also, the TGI came out at 6.25 µM in [1]; 6.87 µM in assay [2]; 3.87 µM in assay [3]; 8.11 µM in assay [4]; 3.83 µM in assay [5]; 5.13 µM in assay [6]. In addition, the TGI in [7] turned out to be 4.54 µM; in [8], 11 µM; in [9], 3.36 µM; in [10], 3.97 µM.
Take `CC1(C)N=C(N)N=C(N)N1c1cc(Cl)ccc1Cl`: the GI50 was greater than 100 µM in [1]; greater than 100 µM in assay [2]; greater than 100 µM in assay [3]; greater than 100 µM in assay [4]; 53.1 µM in assay [5]; greater than 100 µM in assay [6]. Also, the GI50 in assay [7] is greater than 100 µM; in assay [8], greater than 100 µM; in assay [9] it was greater than 100 µM; in assay [10], 93.8 µM. The TGI in assay [1], in assay [2], in assay [3], in assay [4], in assay [5] and in assay [6] was greater than 100 µM throughout. Besides, the TGI in [7], in assay [8], in [9] and in assay [10] was greater than 100 µM in each case.
